Measured values from PubChem BioAssay AID1845209 (Molecular Pharmacology Branch, DTP, NCI, 2023).

System: NCI-H211 tumor spheroids, viability percent test/control
Test: Anticancer human tumor NCI-H211 cell line growth inhibition;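 note: spheroids exposed to agents for seven days before readout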
Conditions: spheroids with HUVEC and MSC; for IC50: curve of first compound; for viability, T/C: stronger effect = lower value
In short: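 Complex spheroids of malignant cells with endothelial cells and mesenchymal stem cells; agents alone or combined, from near clinical Cmax (or 10 microM if unknown) down in half-log steps, 0.25% DMSO final.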

[1] = second compound 30 pM, first compound 0.00949 µM
[2] = second compound 30 pM, first compound 0.03 µM
[3] = second compound 30 pM, first compound 0.0949 µM
[4] = second compound 30 pM, first compound 0.3 µM
[5] = second compound 30 pM, first compound 0.949 µM
[6] = second compound 30 pM, first compound 3 µM
[7] = second compound 94.9 pM, first compound 0.00949 µM
[8] = second compound 94.9 pM, first compound 0.03 µM
[9] = second compound 94.9 pM, first compound 0.0949 µM
[10] = second compound 94.9 pM, first compound 0.3 µM
[11] = second compound 94.9 pM, first compound 0.949 µM
[12] = second compound 94.9 pM, first compound 3 µM
[13] = second compound 0.0003 µM, first compound 0.00949 µM
[14] = second compound 0.0003 µM, first compound 0.03 µM
[15] = second compound 0.0003 µM, first compound 0.0949 µM
[16] = second compound 0.0003 µM, first compound 0.3 µM
[17] = second compound 0.0003 µM, first compound 0.949 µM
[18] = second compound 0.0003 µM, first compound 3 µM
[19] = second compound 0.000949 µM, first compound 0.00949 µM
[20] = second compound 0.000949 µM, first compound 0.03 µM
[21] = second compound 0.000949 µM, first compound 0.0949 µM
[22] = second compound 0.000949 µM, first compound 0.3 µM
[23] = second compound 0.000949 µM, first compound 0.949 µM
[24] = second compound 0.000949 µM, first compound 3 µM
[25] = second compound 0.003 µM, first compound 0.00949 µM
[26] = second compound 0.003 µM, first compound 0.03 µM
[27] = second compound 0.003 µM, first compound 0.0949 µM
[28] = second compound 0.003 µM, first compound 0.3 µM
[29] = second compound 0.003 µM, first compound 0.949 µM
[30] = second compound 0.003 µM, first compound 3 µM

SMILES | IC50 (second compound 30 pM) | IC50 (second compound 94.9 pM) | IC50 (second compound 0.0003 µM) | IC50 (second compound 0.000949 µM) | IC50 (second compound 0.003 µM) | viability, T/C [3] | viability, T/C [4] | viability, T/C [5] | viability, T/C [6] | viability, T/C [9] | viability, T/C [10] | viability, T/C [11] | viability, T/C [12] | viability, T/C [15] | viability, T/C [16] | viability, T/C [17] | viability, T/C [18] | viability, T/C [21] | viability, T/C [22] | viability, T/C [23] | further results
CNCc1ccc(-c2cc(-c3nc(-c4ccc(S(=O)(=O)C(C)C)cc4)cnc3N)on2)cc1 + COc1cc2c(cc1O)CCNC21CSC2c3c(OC(C)=O)c(C)c4c(c3C(COC1=O)N1C(O)C3Cc5cc(C)c(OC)c(O)c5C(C21)N3C)OCO4 | 22.8 nM | < 9.49 nM | < 9.49 nM | < 9.49 nM | < 9.49 nM | 2.15% | 0.93% | 0.77% | 0.11% | 1.02% | 0.78% | 0.59% | 0.11% | 0.73% | 0.7% | 0.5% | 0.1% | 0.88% | 0.66% | 0.34% | viability, T/C [1]: 93.2%; viability, T/C [2]: 36.2%; viability, T/C [7]: 8.16%; viability, T/C [8]: 1.5%; viability, T/C [13]: 0.82%; viability, T/C [14]: 0.84%; viability, T/C [19]: 1.01%; viability, T/C [20]: 0.87%; viability, T/C [24]: 0.11%; viability, T/C [25]: 0.11%; viability, T/C [26]: 0.11%; viability, T/C [27]: 0.09%; viability, T/C [28]: 0.1%; viability, T/C [29]: 0.1%; viability, T/C [30]: 0.15%
Cc1sc2c(c1C)C(c1ccc(Cl)cc1)=NC(CC(=O)Nc1ccc(O)cc1)c1nnc(C)n1-2 (stereo not given) + COc1cc2c(cc1O)CCNC21CSC2c3c(OC(C)=O)c(C)c4c(c3C(COC1=O)N1C(O)C3Cc5cc(C)c(OC)c(O)c5C(C21)N3C)OCO4 | < 9.49 nM | < 9.49 nM | < 9.49 nM | < 9.49 nM | < 9.49 nM | 0.66% | 0.42% | 0.31% | 0.33% | 0.53% | 0.42% | 0.33% | 0.43% | 0.45% | 0.61% | 0.4% | 0.4% | 0.47% | 0.25% | 0.04% | viability, T/C [1]: 45.6%; viability, T/C [2]: 4.36%; viability, T/C [7]: 4.74%; viability, T/C [8]: 0.91%; viability, T/C [13]: 0.79%; viability, T/C [14]: 0.61%; viability, T/C [19]: 0.76%; viability, T/C [20]: 0.61%; viability, T/C [24]: 0.09%; viability, T/C [25]: 0.1%; viability, T/C [26]: 0.09%; viability, T/C [27]: 0.09%; viability, T/C [28]: 0.08%; viability, T/C [29]: 0.1%; viability, T/C [30]: 0.3%
Cn1ncnc1[C@H]1c2n[nH]c(=O)c3cc(F)cc(c23)N[C@@H]1c1ccc(F)cc1 + COc1cc2c(cc1O)CCNC21CSC2c3c(OC(C)=O)c(C)c4c(c3C(COC1=O)N1C(O)C3Cc5cc(C)c(OC)c(O)c5C(C21)N3C)OCO4 | < 9.49 nM | < 9.49 nM | < 9.49 nM | < 9.49 nM | < 9.49 nM | 0.93% | 0.66% | 0.63% | 1% | 0.72% | 0.82% | 0.82% | 0.85% | 0.92% | 0.85% | 0.86% | 1.35% | 0.76% | 1.25% | 0.97% | viability, T/C [1]: 0.83%; viability, T/C [2]: 0.69%; viability, T/C [7]: 0.99%; viability, T/C [8]: 0.82%; viability, T/C [13]: 0.98%; viability, T/C [14]: 0.93%; viability, T/C [19]: 1%; viability, T/C [20]: 0.89%; viability, T/C [24]: 0.5%; viability, T/C [25]: 0.48%; viability, T/C [26]: 0.12%; viability, T/C [27]: 0.1%; viability, T/C [28]: 0.1%; viability, T/C [29]: 0.11%; viability, T/C [30]: 0.4%
O=C(c1cc(Cc2n[nH]c(=O)c3ccccc23)ccc1F)N1CCN(C(=O)C2CC2)CC1 + COc1cc2c(cc1O)CCNC21CSC2c3c(OC(C)=O)c(C)c4c(c3C(COC1=O)N1C(O)C3Cc5cc(C)c(OC)c(O)c5C(C21)N3C)OCO4 | 95.2 nM | < 94.9 nM | < 94.9 nM | < 94.9 nM | < 94.9 nM | 50.5% | 16.1% | 1.62% | 0.78% | 2.31% | 1.2% | 0.86% | 0.78% | 1.39% | 0.85% | 0.91% | 0.8% | 0.69% | 1.29% | 1.05% | viability, T/C (second compound 30 pM, first compound 9.49 µM): 0.73%; viability, T/C (second compound 30 pM, first compound 30 µM): 0.73%; viability, T/C (second compound 94.9 pM, first compound 9.49 µM): 0.78%; viability, T/C (second compound 94.9 pM, first compound 30 µM): 0.95%; viability, T/C (second compound 0.0003 µM, first compound 9.49 µM): 1.69%; viability, T/C (second compound 0.0003 µM, first compound 30 µM): 0.79%; viability, T/C [24]: 0.61%; viability, T/C (second compound 0.000949 µM, first compound 9.49 µM): 0.73%; viability, T/C (second compound 0.000949 µM, first compound 30 µM): 0.72%; viability, T/C [27]: 0.44%; viability, T/C [28]: 0.28%; viability, T/C [29]: 0.1%; viability, T/C [30]: 0.21%; viability, T/C (second compound 0.003 µM, first compound 9.49 µM): 0.25%; viability, T/C (second compound 0.003 µM, first compound 30 µM): 0.2%
